Numbered stars: 1 amine (or outer) side, 2 acyl side, 3 side chain; on linkers, the order of the positions; unused ones are H or OH. Ends that are not written are not given here. Peptide text beside a SMILES is read from it. Cysteamide = C(CS[*:3])N[*:1]
Tests used:
S. aureus ATCC25923 [1] = details: ATCC25923, pH 7
S. epidermidis ATCC12228 [2] = format: cell-based, Staphylococcus epidermidis; details: ATCC12228, 24 h
Method: (§1) The bacterial inoculum was established by the dilution method from actively-growing cultures in Mueller-Hinton broth, standardized with 0.5 McFarland turbidity standard as described in the CLSI method M26-A.
(§2) To determine the prevention of biofilm formation, both the bacterial inoculum and the antimicrobial agents were added simultaneously to the plates. The plates were incubated at 37° C. for 24 h and the optical density was read at 625 nm on a microtitre plate reader (BioTek Powerwave XS, Winooski, USA). The MIC was obtained as the lowest concentration of antimicrobial showing total inhibition of bacterial growth.

[3] = tested on: S. aureus DSM 11729 (MRSA); details: for MBC at pH5.5, S. aureus 11729 / MBC pH5.5, 320 mM NaCl, S. aureus 11729: DSM 11729, pH 5.5; for MBC following MIC at pH 7, S. aureus DSMZ11729: DSM 11729, pH 7
[4] = tested on: P. aeruginosa ATCC BAA-47; details: for MBC at pH5.5, P. aeruginosa ATCCBAA-47 / MBC pH5.5, 320 mM NaCl, P. aeruginosa ATCCBAA-47: ATCC BAA-47, pH 5.5; for MBC following MIC at pH 7, P. aeruginosa ATCCBAA-47: ATCC BAA-47, pH 7
P. aeruginosa DSMZ1299 [5] = details: DSMZ1299, pH 7
P. aeruginosa DSMZ1128 [6] = details: DSMZ1128, pH 7
S. aureus ATCC25923 [7] = format: cell-based, Staphylococcus aureus; details: ATCC25923, 24 h
Method: as §1, §2

[8] = tested on: S. aureus DSM 11729 (MRSA); assay: microbe, parasite or virus in culture; format: cell-based, Staphylococcus aureus; details: DSM 11729, 24 h; for MIC pH5.5, 320 mM NaCl, S. aureus 11729 / MIC pH5.5, S. aureus 11729: pH 5.5
Method: as §1
as §2, with “growth. […]” for “growth.”
(§3) FIC=MICA[combination]/MICA[alone]+MICB[combination]/MICB[alone] […]
(§4) In order to assess for the prevention of biofilm formation by both Gram-positive and Gram-negative bacteria, the bacterial inoculum and antimicrobial agents were added simultaneously in the plates. The range of concentrations of antimicrobial agents was 0-500 μg/ml NP108 and 0-320 μg/ml cysteamine against the Gram-negative bacteria P. aeruginosa ATCC BAA-47 and 0-1000 μg/ml NP108 and 0-320 μg/ml cysteamine against the Gram-positive MRSA.

[9] = tested on: P. aeruginosa ATCC BAA-47; assay: microbe, parasite or virus in culture; format: cell-based, Pseudomonas aeruginosa; details: ATCC BAA-47, 24 h; for MIC pH5.5, 320 mM NaCl, P. aeruginosa ATCCBAA-47 / MIC pH5.5, P. aeruginosa ATCCBAA-47: pH 5.5
Method: as §1
as §2, with “growth. […]” for “growth.”
as §3, §4

P. aeruginosa DSMZ1299 [10] = format: cell-based, Pseudomonas aeruginosa; details: DSMZ1299, 24 h, pH 7
Method: as §1, §2

P. aeruginosa DSMZ1128 [11] = format: cell-based, Pseudomonas aeruginosa; details: DSMZ1128, 24 h
Method: as §1, §2

S. epidermidis ATCC12228 [12] = details: ATCC12228, pH 7

| Compound | MBC following MIC at pH 7, S. aureus ATCC25923 (S. aureus ATCC25923 [1]) | MIC at pH 7, S. epidermidis ATCC12228 (S. epidermidis ATCC12228 [2]) | MBC at pH5.5, S. aureus 11729 [3] | MBC pH5.5, 320 mM NaCl, S. aureus 11729 [3] | MBC following MIC at pH 7, S. aureus DSMZ11729 [3] | MBC at pH5.5, P. aeruginosa ATCCBAA-47 [4] | MBC pH5.5, 320 mM NaCl, P. aeruginosa ATCCBAA-47 [4] | MBC following MIC at pH 7, P. aeruginosa ATCCBAA-47 [4] | MBC following MIC at pH 7, P. aeruginosa DSMZ1299 (P. aeruginosa DSMZ1299 [5]) | MBC following MIC at pH 7, P. aeruginosa DSMZ1128 (P. aeruginosa DSMZ1128 [6]) | MIC at pH 7, S. aureus ATCC25923 (S. aureus ATCC25923 [7]) | MIC pH5.5, 320 mM NaCl, S. aureus 11729 [8] | MIC pH5.5, S. aureus 11729 [8] | MIC at pH 7, S. aureus DSMZ11729 [8] | MIC pH5.5, 320 mM NaCl, P. aeruginosa ATCCBAA-47 [9] | MIC pH5.5, P. aeruginosa ATCCBAA-47 [9] | MIC at pH 7, P. aeruginosa ATCCBAA-47 [9] | MIC at pH 7, P. aeruginosa D5MZ1299 (P. aeruginosa DSMZ1299 [10]) | MIC at pH 7, P. aeruginosa DSMZ1128 (P. aeruginosa DSMZ1128 [11]) | MBC following MIC at pH 7, S. epidermidis ATCC12228 (S. epidermidis ATCC12228 [12]) |
| --- | --- | --- | --- | --- | --- | --- | --- | --- | --- | --- | --- | --- | --- | --- | --- | --- | --- | --- | --- | --- |
| HHHFRFFFRFRRR [NP438, HHHFRFFFRFRRR] | >500 μg/ml | <7.8 μg/ml | >500 μg/ml | >500 μg/ml | >500 μg/ml | >500 μg/ml | >500 μg/ml | >500 μg/ml | >500 μg/ml | >500 μg/ml | >500 μg/ml | >500 μg/ml | >500 μg/ml | >500 μg/ml | 62.5 μg/ml | 125 μg/ml | >500 μg/ml | 500 μg/ml | >500 μg/ml | 125 μg/ml |
| KKFPWRLRLRYGRR [NP445, KKFPWRLRLRYGRR] | >500 μg/ml | <7.8 μg/ml | >500 μg/ml | >500 μg/ml | >500 μg/ml | >500 μg/ml | >500 μg/ml | 250 μg/ml | 125 μg/ml | 250 μg/ml | 500 μg/ml | >500 μg/ml | >500 μg/ml | 500 μg/ml | >500 μg/ml | >500 μg/ml | 31.25 μg/ml | 31.25 μg/ml | 62.5 μg/ml | 62.5 μg/ml |
| RRRFRFFFRFRRR [NP432, RRRFRFFFRFRRR] | 250 μg/ml | <7.8 μg/ml | >500 μg/ml | >500 μg/ml | 500 μg/ml | 125 μg/ml | >500 μg/ml | 250 μg/ml | 32 (2) μg/ml | 250 (2) μg/ml | 31.25 μg/ml | >500 μg/ml | >500 μg/ml | 62.5 μg/ml | 125 μg/ml | 125 μg/ml | 15.6 μg/ml | 15.6 μg/ml | 62.5 μg/ml | 16 μg/ml |
| N=C(N)NCCC[C@H](NC(=O)[C@H](CCCCN)NC(=O)[C@@H]1CCCN1C(=O)[C@H](CCCNC(=N)N)NC(=O)[C@H](CCCNC(=N)N)NC(=O)[C@@H]1CCCN1C(=O)[C@H](CCCCN)NC(=O)[C@H](CCCNC(=N)N)NC(=O)[C@H](CCCNC(=N)N)NC(=O)[C@@H]1CCCN1C(=O)[C@H](CCCCN)NC(=O)[C@@H](N)CCCCN)C(=O)N[C@@H](CCCCN)C(=O)N[C@@H](CCCCN)C(=O)NCCS [NP449, KKPRRKPRRPKRKK-cysteamine] (H-KKPRRKPRRPKRKK-Cysteamide; N-terminus assumed) | >500 μg/ml | 31.25 μg/ml | >500 μg/ml | >500 μg/ml | 250 μg/ml | >500 μg/ml | >500 μg/ml | >500 μg/ml | 250 (2) μg/ml | 500 (2) μg/ml | 250 μg/ml | >500 μg/ml | >500 μg/ml | 125 μg/ml | >500 μg/ml | >500 μg/ml | 250 μg/ml | 125 μg/ml | 250 μg/ml | 125 μg/ml |
| N=C(N)NCCC[C@H](NC(=O)[C@H](CCCNC(=N)N)NC(=O)[C@H](CCCNC(=N)N)NC(=O)[C@H](CCCNC(=N)N)NC(=O)[C@@H](N)CCCNC(=N)N)C(=O)N[C@@H](Cc1c[nH]cn1)C(=O)N[C@@H](Cc1c[nH]cn1)C(=O)NCCS [NP458, RRRRRHH-cysteamine] (H-RRRRRHH-Cysteamide; N-terminus assumed) | 125 μg/ml | 31.25 μg/ml | >500 μg/ml | >500 μg/ml | 250 μg/ml | >500 μg/ml | >500 μg/ml | >500 μg/ml | >500 μg/ml | >500 μg/ml | 250 μg/ml | >500 μg/ml | >500 μg/ml | 250 μg/ml | >500 μg/ml | >500 μg/ml | 62.5 μg/ml | 125 μg/ml | 250 μg/ml | 500 μg/ml |

Reference: patent publication US20190175528A1, “INHIBITION OF BIOFILM ORGANISMS” (NovaBiotics Limited, priority 2009, published 2019)
